# Reference: US8802597B2, “Herbicidal pyrimidines” (E I du Pont de Nemours and Company, priority 2003, dated 2014)
# Like-named read-outs stand apart in the source and are kept apart here.
# Assays:
# Format in all cases: in vivo
# wild oat (Avena fatua) = assay: Test B postemergence; details: Avena fatua, post-emergence
# Method in brief: (§1)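 Visual rating, 0 (no effect) to 100 (complete control) versus controls, taken 13–15 days after treatment in greenhouse. Compounds formulated in non-phytotoxic solvent plus surfactant; pre: sprayed after seeding; post: plants at 1- to 4-leaf stage, 2–18 cm.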
# [1] = tested on: blackgrass (Alopecurus myosuroides); assay: Test B postemergence; details: Alopecurus myosuroides, post-emergence
# Method in brief: as §1
# rice (Oryza sativa) = assay: Test B flooded paddy test; details: Oryza sativa, Flood, 1000 g ai/ha; scale 0 to 100; read-out: Plant response rating, Rice
# Method in brief: (§2)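 Rice, umbrella sedge, duck salad and barnyardgrass grown to 2-leaf stage under flooded paddy conditions and treated with formulated test chemicals. Kept in greenhouse 13–15 days, then visually rated against untreated controls on a 0–100 scale (0 no effect, 100 complete control).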
# [2] = tested on: barnyardgrass (Echinochloa crus-galli); assay: Test B flooded paddy test; details: Echinochloa crus-galli, Flood, 1000 g ai/ha; scale 0 (no effect) to 100 (complete control); read-out: Plant response rating, Barnyardgrass
# Method in brief: as §2
# [3] = tested on: umbrella sedge (Cyperus difformis); assay: Test B flooded paddy test; details: Cyperus difformis, Flood, 1000 g ai/ha; scale 0 to 100; read-out: Plant response rating, Sedge, Umbrella
# Method in brief: as §2
# [4] = tested on: duck salad (Heteranthera limosa); assay: Test B flooded paddy test; details: Heteranthera limosa, Flood, 1000 g ai/ha; scale 0 to 100; read-out: Plant response rating, Ducksalad
# Method in brief: as §2
# [5] = tested on: cocklebur (Xanthium strumarium); assay: Test B pre/postemergence; details: Xanthium strumarium; for pest or weed control at 125 g/ha: 125 g ai/ha; for pest or weed control at 500 g/ha: 500 g ai/ha
# Method in brief: as §1
# [6] = tested on: lambsquarters (Chenopodium album); assay: Test B pre/postemergence; details: Chenopodium album; for pest or weed control at 125 g/ha: 125 g ai/ha; for pest or weed control at 500 g/ha: 500 g ai/ha
# Method in brief: as §1
# [7] = tested on: Surinam grass (Brachiaria decumbens); assay: Test B pre/postemergence; details: Urochloa decumbens; for pest or weed control at 125 g/ha: 125 g ai/ha; for pest or weed control at 500 g/ha: 500 g ai/ha
# Method in brief: as §1
# [8] = tested on: barnyardgrass (Echinochloa crus-galli); assay: Test B pre/postemergence; details: Echinochloa crus-galli; for pest or weed control at 125 g/ha: 125 g ai/ha; for pest or weed control at 500 g/ha: 500 g ai/ha
# Method in brief: as §1
# corn (Zea mays) = assay: Test B pre/postemergence; details: Zea mays
# Method in brief: as §1
# [9] = tested on: giant foxtail (Setaria faberii); assay: Test B pre/postemergence; details: Setaria faberi; for pest or weed control at 125 g/ha: 125 g ai/ha; for pest or weed control at 500 g/ha: 500 g ai/ha
# Method in brief: as §1
# [10] = tested on: wheat (Triticum aestivum); assay: Test B pre/postemergence; details: Triticum aestivum; for plant injury at 125 g/ha: 125 g ai/ha; for plant injury at 500 g/ha: 500 g ai/ha
# Method in brief: as §1
# [11] = tested on: morningglory (Ipomoea coccinea); assay: Test B pre/postemergence; details: Ipomoea; for pest or weed control at 125 g/ha: 125 g ai/ha; for pest or weed control at 500 g/ha: 500 g ai/ha
# Method in brief: as §1
# [12] = tested on: velvetleaf (Abutilon theophrasti); assay: Test B pre/postemergence; details: Abutilon theophrasti; for pest or weed control at 125 g/ha: 125 g ai/ha; for pest or weed control at 500 g/ha: 500 g ai/ha
# Method in brief: as §1
# [13] = tested on: pigweed (Amaranthus retroflexus); assay: Test B pre/postemergence; details: Amaranthus retroflexus; for pest or weed control at 125 g/ha: 125 g ai/ha; for pest or weed control at 500 g/ha: 500 g ai/ha
# Method in brief: as §1
# [14] = tested on: crabgrass (Digitaria sanguinalis); assay: Test B pre/postemergence; details: Digitaria sanguinalis; for pest or weed control at 125 g/ha: 125 g ai/ha; for pest or weed control at 500 g/ha: 500 g ai/ha
# Method in brief: as §1
smiles,measurement,setting,value
COC(=O)c1nc(-c2ccccc2)nc(N)c1Br [Compound 23],pest or weed control at 125 g/ha,"wild oat (Avena fatua); 125 g ai/ha, scale 0 to 100 (0 no effect, 100 complete control), read-out: Oat, Wild plant response rating",10%
same,pest or weed control at 500 g/ha,"wild oat (Avena fatua); 500 g ai/ha, scale 0 to 100, read-out: Plant response rating, Oat, Wild",10%
same,pest or weed control at 125 g/ha,"[1]; 125 g ai/ha, scale 0 to 100 (0 no effect, 100 complete control), read-out: Blackgrass plant response rating",0%
same,pest or weed control at 500 g/ha,"[1]; 500 g ai/ha, scale 0 to 100, read-out: Plant response rating, Blackgrass",10%
same,plant injury at 1000 g/ha,rice (Oryza sativa),0%
same,pest or weed control at 1000 g/ha,[2],0%
same,pest or weed control at 1000 g/ha,[3],0%
same,pest or weed control at 1000 g/ha,[4],30%
same,pest or weed control at 125 g/ha,"[5]; post-emergence, Postemergence, scale 0 to 100 (0 no effect, 100 complete control), read-out: Cocklebur plant response rating",30%
same,pest or weed control at 500 g/ha,"[5]; post-emergence, Postemergence, scale 0 to 100, read-out: Plant response rating, Cocklebur",90%
same,pest or weed control at 125 g/ha,"[5]; pre-emergence, Preemergence, scale 0 to 100 (0 no effect, 100 complete control), read-out: Plant response rating, Cocklebur",0%
same,pest or weed control at 500 g/ha,"[5]; pre-emergence, Preemergence, scale 0 to 100 (0 no effect, 100 complete control), read-out: Cocklebur plant response rating",10%
same,pest or weed control at 125 g/ha,"[6]; post-emergence, Postemergence, scale 0 to 100 (0 no effect, 100 complete control), read-out: Lambsquarters plant response rating",70%
same,pest or weed control at 500 g/ha,"[6]; post-emergence, Postemergence, scale 0 to 100, read-out: Plant response rating, Lambsquarters",80%
same,pest or weed control at 125 g/ha,"[6]; pre-emergence, Preemergence, scale 0 to 100 (0 no effect, 100 complete control), read-out: Plant response rating, Lambsquarters",0%
same,pest or weed control at 500 g/ha,"[6]; pre-emergence, Preemergence, scale 0 to 100 (0 no effect, 100 complete control), read-out: Lambsquarters plant response rating",30%
same,pest or weed control at 125 g/ha,"[7]; post-emergence, Postemergence, scale 0 to 100 (0 no effect, 100 complete control), read-out: Surinam Grass plant response rating",0%
same,pest or weed control at 500 g/ha,"[7]; post-emergence, Postemergence, scale 0 to 100, read-out: Plant response rating, Surinam Grass",10%
same,pest or weed control at 125 g/ha,"[7]; pre-emergence, Preemergence, scale 0 to 100 (0 no effect, 100 complete control), read-out: Plant response rating, Surinam Grass",0%
same,pest or weed control at 500 g/ha,"[7]; pre-emergence, Preemergence, scale 0 to 100 (0 no effect, 100 complete control), read-out: Surinam Grass plant response rating",0%
same,pest or weed control at 125 g/ha,"[8]; post-emergence, Postemergence, scale 0 to 100 (0 no effect, 100 complete control), read-out: Barnyardgrass plant response rating",0%
same,pest or weed control at 500 g/ha,"[8]; post-emergence, Postemergence, scale 0 to 100, read-out: Plant response rating, Barnyardgrass",0%
same,pest or weed control at 125 g/ha,"[8]; pre-emergence, Preemergence, scale 0 to 100 (0 no effect, 100 complete control), read-out: Plant response rating, Barnyardgrass",0%
same,pest or weed control at 500 g/ha,"[8]; pre-emergence, Preemergence, scale 0 to 100 (0 no effect, 100 complete control), read-out: Barnyardgrass plant response rating",0%
same,plant injury at 125 g/ha,"corn (Zea mays); post-emergence, Postemergence, 125 g ai/ha, scale 0 to 100 (0 no effect, 100 complete control), read-out: Corn plant response rating",0%
same,"Corn plant response rating (crop injury, 0 = no effect, 100 = complete kill) at 500 g/ha","corn (Zea mays); post-emergence, Postemergence, 500 g ai/ha, scale 0 to 100",0%
same,"Corn plant response rating (crop injury, 0 = no effect, 100 = complete kill) at 125 g/ha","corn (Zea mays); pre-emergence, Preemergence, 125 g ai/ha, scale 0 to 100 (0 no effect, 100 complete control)",0%
same,plant injury at 500 g/ha,"corn (Zea mays); pre-emergence, Preemergence, 500 g ai/ha, scale 0 to 100 (0 no effect, 100 complete control), read-out: Corn plant response rating",0%
same,pest or weed control at 125 g/ha,"[9]; post-emergence, Postemergence, scale 0 to 100 (0 no effect, 100 complete control), read-out: Foxtail, Giant plant response rating",0%
same,pest or weed control at 500 g/ha,"[9]; post-emergence, Postemergence, scale 0 to 100, read-out: Plant response rating, Foxtail, Giant",10%
same,pest or weed control at 125 g/ha,"[9]; pre-emergence, Preemergence, scale 0 to 100 (0 no effect, 100 complete control), read-out: Plant response rating, Foxtail, Giant",0%
same,pest or weed control at 500 g/ha,"[9]; pre-emergence, Preemergence, scale 0 to 100 (0 no effect, 100 complete control), read-out: Foxtail, Giant plant response rating",0%
same,plant injury at 125 g/ha,"[10]; post-emergence, Postemergence, scale 0 to 100 (0 no effect, 100 complete control), read-out: Wheat plant response rating",0%
same,plant injury at 500 g/ha,"[10]; post-emergence, Postemergence, scale 0 to 100, read-out: Plant response rating, Wheat",20%
same,plant injury at 125 g/ha,"[10]; pre-emergence, Preemergence, scale 0 to 100 (0 no effect, 100 complete control), read-out: Plant response rating, Wheat",0%
same,plant injury at 500 g/ha,"[10]; pre-emergence, Preemergence, scale 0 to 100 (0 no effect, 100 complete control), read-out: Wheat plant response rating",0%
same,pest or weed control at 125 g/ha,"[11]; post-emergence, Postemergence, scale 0 to 100 (0 no effect, 100 complete control), read-out: Morningglory plant response rating",40%
same,pest or weed control at 500 g/ha,"[11]; post-emergence, Postemergence, scale 0 to 100, read-out: Plant response rating, Morningglory",70%
same,pest or weed control at 125 g/ha,"[11]; pre-emergence, Preemergence, scale 0 to 100 (0 no effect, 100 complete control), read-out: Plant response rating, Morningglory",0%
same,pest or weed control at 500 g/ha,"[11]; pre-emergence, Preemergence, scale 0 to 100 (0 no effect, 100 complete control), read-out: Morningglory plant response rating",10%
same,pest or weed control at 125 g/ha,"[12]; post-emergence, Postemergence, scale 0 to 100 (0 no effect, 100 complete control), read-out: Velvetleaf plant response rating",40%
same,pest or weed control at 500 g/ha,"[12]; post-emergence, Postemergence, scale 0 to 100, read-out: Plant response rating, Velvetleaf",70%
same,pest or weed control at 125 g/ha,"[12]; pre-emergence, Preemergence, scale 0 to 100 (0 no effect, 100 complete control), read-out: Plant response rating, Velvetleaf",0%
same,pest or weed control at 500 g/ha,"[12]; pre-emergence, Preemergence, scale 0 to 100 (0 no effect, 100 complete control), read-out: Velvetleaf plant response rating",20%
same,pest or weed control at 125 g/ha,"[13]; post-emergence, Postemergence, scale 0 to 100 (0 no effect, 100 complete control), read-out: Pigweed plant response rating",30%
same,pest or weed control at 500 g/ha,"[13]; post-emergence, Postemergence, scale 0 to 100, read-out: Plant response rating, Pigweed",70%
same,pest or weed control at 125 g/ha,"[13]; pre-emergence, Preemergence, scale 0 to 100 (0 no effect, 100 complete control), read-out: Plant response rating, Pigweed",0%
same,pest or weed control at 500 g/ha,"[13]; pre-emergence, Preemergence, scale 0 to 100 (0 no effect, 100 complete control), read-out: Pigweed plant response rating",20%
same,pest or weed control at 125 g/ha,"[14]; post-emergence, Postemergence, scale 0 to 100 (0 no effect, 100 complete control), read-out: Crabgrass plant response rating",0%
same,pest or weed control at 500 g/ha,"[14]; post-emergence, Postemergence, scale 0 to 100, read-out: Plant response rating, Crabgrass",0%
same,pest or weed control at 125 g/ha,"[14]; pre-emergence, Preemergence, scale 0 to 100 (0 no effect, 100 complete control), read-out: Plant response rating, Crabgrass",0%
same,pest or weed control at 500 g/ha,"[14]; pre-emergence, Preemergence, scale 0 to 100 (0 no effect, 100 complete control), read-out: Crabgrass plant response rating",0%
